In the assay the test system is JNK1. Put plainly: Epitope-tagged JNK1 protein kinase activity in transfected COS cells. Particulars: 10 nM EGF or 100 nM TPA. In kind it is cell-based. As to the method:
JNK1 protein kinase activity was detected in the immune-complex. Immunecomplex kinase assays using either M2 immunoprecipitates or purified JNK1, JNK-46, and ERK1 or ERK2 were performed at 30° C. for 20 mins using 3 μg of substrate, 20 μM ATP and 5 μCi of [γ-^32P]ATP in 30 μl of kinase buffer (25 mM Hepes (pH 7.6), 20 mM MgCl2, 20 mM β-glycerophosphate, 20 mM p-nitrophenyl phosphate, 0.1 mM Na orthovanadate, 2 mM DTT). The reactions were terminated with Laemmli sample buffer and the products were resolved by SDS-PAGE (12% gel). JNK1 protein activity was also measured after SDS-PAGE by the in-gel kinase assay with the substrate GST-cJun(1-79) as described by Hibi, et al., supra, (1993). Solid-phase protein kinase assays were performed as described by Hibi, et al., supra, (1993). Clarified cell extracts were incubated with GST fusion proteins immobilized on GSH-agarose beads. After 3 hours at 4° C., the beads were washed extensively and bound JNK1 was detected by the addition of [γ-^32P]ATP. The reaction was terminated after 10 mins at 30° C. and the products were resolved by SDS-PAGE. The incorporation of [^32P]phosphate was visualized by autoradiography and quantitated with a phosphorimager and ImageQuant software (Molecular Dynamics Inc., Sunnyvale, Calif.). The methods used for phosphopeptide mapping (Boyle, et al., Cell 64:573-584, 1991) and phosphoamino acid analysis (Alvarez, et al., J. Biol. Chem 266:15227-15285, 1991) were described previously.
Epitope-tagged JNK1 was expressed in COS cells. Control experiments were performed using mock-transfected cells. After 48 hours, the cells were treated either without or with 100 nM TPA, 10 nM EGF, or 80 J/m^2 UV-C and incubated for 1 hr. The cells were lysed in RIPA buffer and the JNK1 proteins were isolated by immunoprecipitation with the M2 monoclonal antibody. JNK1 protein kinase activity was measured after SDS-PAGE using an in-gel kinase assay with the substrate GST-cJun(1-79) polymerized into the gel.
COS-1 cells were maintained in. Dulbecco's modified Eagle's medium supplemented with 5% […] (Gibco-BRL). Metabolic labeling with [^32P]phosphate was performed by incubation of cells in phosphate-free modified Eagle's medium (Flow Laboratories Inc.) supplemented with 0.1% fetal bovine serum and 1 mCi/ml [^32P]orthophosphate (Dupont-NEN). COS cells were treated with 10 nM EGF or 100 nM thorbol myristate acetate. The cells were then incubated for defined times at 37° C. prior to harvesting and measurement of JNK1 protein kinase activity. The data are presented as arbitrary units. […] In contrast, exposure to UV radiation caused a marked increase in JNK1 activity.

For the substance “EGF: EGF, used at 10 nM to treat COS cells (NSDSECPLSHDGYCLHDGVCMYIEALDKYACNCVVGYIGERCQYRDLKWWELR; UniProt P01133 971-1023, looked up)”, the JNK1 activation result was “low level of JNK1 activation” and the “duration of JNK1 activation” value was “approximately 2 hours”.

The values are drawn from patent US6706509B2, “Oncoprotein protein kinase” (The Regents of the University of California, priority 1993, dated 2004).
